From patent publication EP0209274A2, “Furanone derivatives” (ELI LILLY AND COMPANY, priority 1985, dated 1987)

How the values were obtained:
[1] = target: T1, fatty acid cyclooxygenase (Homo sapiens, UniProt P23219); experiment: Fatty Acid Cyclooxygenase (FCO) Assay; format: biochemical; conditions: 30 µg/ml test compound; inhibition of formation of PGE2; enzyme from human platelets
T1 construct: Microsomes were prepared from 185 bags of human platelets; from tissue; host or cells: human platelets (solubilized microsomes, then electrofocusing and Sephadex G-200)
Experimental: Microsomes were prepared from 185 bags of human platelets (each bag containing the platelets from one pint of blood prepared using differential centrifugation procedures). The platelets from approximately 60 bags were prepared at one time. Platelet-rich plasma (500 g) was centrifuged at 10,000 x g for 20 minutes, and the platelet pellet was suspended in 100 ml of 0.1M. potassium phosphate buffer, pH 8.0, with a Teflon glass homogenizer and sonicated for 5.0 minutes with a Bronson Sonifier (Model 350) in a rosette flask cooled in ice water. Disrupted platelets were centrifuged 15 minutes at 10,000 x g. The supernatant was centrifuged at 100,000 x g for 90 minutes and the microsomal pellets were homogenized in 25 ml of 20% sucrose containing 1.0% Triton X-100 detergent. After 30 minutes at 4°C, the solubilized microsomes were centrifuged at 100,000 x g for 60 minutes. The yellow supernatant was removed and stored at -70°C.
The solubilized fatty acid cyclooxygenase was applied to a 440 ml electrofocusing column (LKB-8012) containing 1% phisolytes (Brinkman Instruments, Westburgh, NY), pH 2-11, with the cathode at the top of the column. The enzyme was layered onto the column at the appropriate time so that its sucrose concentration was equal to that of the column gradient. This was accomplished by checking the gradient concentration periodically with a sucrose hand refractometer. Electrofocusing was carried out for 16 hours with an initial voltage of 400 V and a final voltage of 900-1,000 volts. Fractions were collected (20 ml) and assayed for PGE2 formation. Active peak fractions were pooled and concentrated by ultrafiltration (XM 100A) to a volume of 3-5 ml.
Active fractions from electrofocusing were applied to a G-200 Sephadex column (2 cm x 46 cm) and eluted with 10 mM potassium phosphate buffer, pH 7.0, in 5 ml fractions. After assay, active fractions were pooled and concentrated to 1.0 ml by ultrafiltration (XM 100A), and kept frozen at -70°C.
Enzyme activity was determined by assaying for PGE2 formation by preincubating the enzyme with 10 mmol/l imidazole phosphate buffer, pH 8.0, 2 mmol/l epinephrine, 2 mmol/1 methemoglobin, and the test compound (30 pg/ml) in a total volume of 0.2 ml for one minute at 37°C. After preincubation, 5 mmol/1 ^14C-arachidonic acid were added and the mixture was incubated an additional 0.5 minutes at 37°C. The enzyme reaction was stopped by the addition of 20 µl of indomethacin (2 mg/ml) in alcohol.
The reaction mixture was spotted (50 pl) on a silica gel (LQ6D) plate and subjected to TLC. The solvent system consisted of chloroform-methanol-glacial acetic acid (90:5:5, v/v/v) and the relative mobilities were PGF2a = 0.235, and PGE2 = 0.47. The silica gel on the plate was scraped in 1 cm sections, suspended in 5 ml of the scintillation fluid [5.88 g of 2,5-diphenyl-oxazole and 118 mg of 1,4-bis(5-phenyloxazol-2-yl)benzene] dissolved in 650 ml of toluene and 350 ml of Triton X-100) and the radioactivity was determined in an Isocap/300 liquid scintillation counter (Searle Analytic, Inc., Southfield, MI). Another 50 µl of the mixture was added to 10 ml of the Triton X-100 based scintillation fluid, and the radioactivity was determined so that the amount of radioactivity recovery from the TLC plate could be ascertained. PGE2 formation for each test compound was determined as a percent of control experiments wherein no test compound was added. Data is expressed in Table I as the percent inhibition of formation of PGE2 at a test compound concentration of 30 pg/ml.

[2] = target: Pancreatic phospholipase A2 (Homo sapiens, UniProt P04054); experiment: Phospholipase A2 (PLA2) Assay; format: biochemical; conditions: 30 µg/ml test compound; inhibition of 14C-free fatty acid formation
Experimental: The assay buffer contained 10 mM Tris-HCl buffer, pH 8.0, 100 mM NaCl, 1 mM CaCl2 and 1 mg/ml of bovine serum albumin. A toluene-ethanol (1:1 v/v) solution of phosphatidiylcholine, L-a-dipalmitoyl-(2-palmitoyl-1-^14C) obtained from New England Nuclear was evaporated to dryness in a flask under nitrogen and the assay buffer was added to give a substrate concentration of 9.0 x 10^-5M (specific activity = 27.7 mCi/mmol). The mixture was sonicated for 5 minutes in a Bransonic 220 Sonication Bath. Pancreatic phospholipase A2 (specific activity = 600 units/mg) was diluted with the assay buffer to give an enzyme concentration of 0.1 mg/ml. […] To initiate the enzyme reaction, 0.1 ml of the mixture containing the substrate was added to the enzyme solution and the reaction mixture was further incubated for 30 minutes at 37°C. The reaction was then terminated by the addition of 20 µl of 1M citric acid.
Fifty µl of the mixture was added to 10 ml of scintillation fluid [5.88 g of 2,5-diphenyl-oxazole and 118 mg of 1,4-bis(5-phenyloxazol-2-yl)benzene] dissolved in 650 ml of toluene and 350 ml of Triton X-100) and the radioactivity was determined in an Isocap/300 liquid scintillation counter (Searle Analytic Inc., Southfield, Michigan). Another 50 µl of the mixture was applied directly onto the spotting area of a silica gel plate (LK6D, Whatman, Clifton, N.J.) and subjected to thin layer chromatography in a solvent system of ethyl acetate:acetic acid:2,2,4-trimethylpentane:H20 (90:20:50:100, v/v/v). The silica gel on the plate was scraped in 1 cm sections, suspended in 5 ml of the Triton X-100 based scintillation fluid and the radioactivity was determined. Phosphatidylcholine remained at the origin while fatty acids migrated to a few centimeters (2-3 cm) below the solvent front. The percent of ^14C-free fatty acid formed with the test compound added was calculated as compared to the amount formed in control experiments where no test compound was added. […]

5-Lipoxygenase = target: T2, 5-Lipoxygenase (Cavia porcellus, UniProt A0A286X958); experiment: 5-Lipoxygenase (5-LPO) Assay; format: biochemical, guinea pigs; conditions: inhibition of 5-HETE formation; supernatant of guinea pig PMNL sonicate; read-out: 5-LPO IC50 (µg/ml) (converted)
T2 construct: The PMNL suspension was disrupted by five ½-second pulse sonication; from tissue; host or cells: guinea pig peritoneal polymorphonuclear leukocytes (30,000 x g supernatant of the sonicate)
T2 sequence (A0A286X958 1-674): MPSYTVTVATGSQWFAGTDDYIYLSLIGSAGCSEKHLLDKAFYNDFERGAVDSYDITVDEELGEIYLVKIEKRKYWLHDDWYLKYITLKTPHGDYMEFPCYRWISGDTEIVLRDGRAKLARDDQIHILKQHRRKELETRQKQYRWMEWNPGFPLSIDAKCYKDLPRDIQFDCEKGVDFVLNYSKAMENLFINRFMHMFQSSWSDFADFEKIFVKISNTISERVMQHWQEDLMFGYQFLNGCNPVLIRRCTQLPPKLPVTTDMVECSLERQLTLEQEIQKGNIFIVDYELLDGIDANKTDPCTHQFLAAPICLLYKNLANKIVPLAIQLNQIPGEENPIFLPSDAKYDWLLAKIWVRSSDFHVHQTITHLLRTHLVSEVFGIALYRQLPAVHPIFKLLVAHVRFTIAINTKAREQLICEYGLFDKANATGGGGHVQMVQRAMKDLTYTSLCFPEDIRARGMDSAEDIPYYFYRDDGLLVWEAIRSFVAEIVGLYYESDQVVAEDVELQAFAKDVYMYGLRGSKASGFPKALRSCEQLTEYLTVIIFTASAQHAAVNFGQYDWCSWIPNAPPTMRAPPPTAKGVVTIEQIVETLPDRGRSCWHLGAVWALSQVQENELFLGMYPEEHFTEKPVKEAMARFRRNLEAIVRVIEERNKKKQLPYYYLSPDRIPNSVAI
Experimental: Ten milliliters of a 2% casein solution were injected intraperitoneally to guinea pigs weighing 250-300 gm. After 16-18 hours, the guinea pigs were killed by suffocation in a carbon dioxide chamber. The peritoneal cavity was infused with 70 ml of saline and 40-50 ml of the fluid were recovered from the cavity. After centrifugation, cell pellets were washed twice in Hank's balanced salt solution (HBSS) without calcium ion.
The cells were then suspended in 5 ml of sodium phosphate buffer, pH 7.1 containing 1 mM EDTA, and 0.1% gelatin. About 20-30 x 10^7 cells were obtained from one guinea pig.
The PMNL suspension was disrupted by five ½-second pulse sonication at the setting of 3 in a Branson Sonifier, Model 350, equipped with a microtip. The sonicates were combined and centrifuged at 30,000 x g for 10 minutes. The supernatant was kept frozen at -70°C until use.
. Enzyme activity was determined by assaying for 5-HETE formatiun by first incubating 0.2 ml of the supernatant obtained from the PMNL sonicate with the test compound, 1 mM CaCl2, 2 mM ATP, and 1 mM GSH for 5 minutes at 37°C. The mixture is treated with 5 pM ^14C-arachidonic acid and incubated at 37°C an additional 10 minutes. The enzyme reaction was then stopped by the addition of 10 µl of 1M citric acid and 10 µl of an alcohol solution containing 20 mg/ml each of indomethacin and butylated hydroxyanisole (BHA). The reaction mixture was spotted (50 µl) on a silica gel plate (Baker TLC plate S1250-PA-19C) and subjected to TLC in a solvent system of ethyl acetate/2,2,4-tri- methylpentane/glacial acetic acid/H20 (90:50:20:100).
The radioactivity of the arachidonic acid and its metabolites (5-HETE and LTB4) was visualized from a developed x-ray film which had been exposed to the TLC plate 1-2 days. The amount of 5-HETE formed was quanti- tated by scraping the silica gel area corresponding to the spot on the x-ray film, and the radioactivity determined in a Isocap/300 liquid scintillation counter (Searle Analytic, Inc.).
The percent inhibition of the formation of 5-HETE was determined for each concentration of test compound tested as compared to a control experiment wherein no test compound was added. The concentration and percent inhibition values were plotted on semi log paper and the concentration in which formation of 5-HETE is inhibited by 50% (ICso) was determined by interpolation.

Pancreatic phospholipase A2, sequence (P04054 23-148): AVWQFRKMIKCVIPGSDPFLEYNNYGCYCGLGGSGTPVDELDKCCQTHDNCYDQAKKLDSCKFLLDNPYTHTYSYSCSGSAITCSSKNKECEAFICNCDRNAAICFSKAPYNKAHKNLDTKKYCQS
T1 sequence (P23219 24-599): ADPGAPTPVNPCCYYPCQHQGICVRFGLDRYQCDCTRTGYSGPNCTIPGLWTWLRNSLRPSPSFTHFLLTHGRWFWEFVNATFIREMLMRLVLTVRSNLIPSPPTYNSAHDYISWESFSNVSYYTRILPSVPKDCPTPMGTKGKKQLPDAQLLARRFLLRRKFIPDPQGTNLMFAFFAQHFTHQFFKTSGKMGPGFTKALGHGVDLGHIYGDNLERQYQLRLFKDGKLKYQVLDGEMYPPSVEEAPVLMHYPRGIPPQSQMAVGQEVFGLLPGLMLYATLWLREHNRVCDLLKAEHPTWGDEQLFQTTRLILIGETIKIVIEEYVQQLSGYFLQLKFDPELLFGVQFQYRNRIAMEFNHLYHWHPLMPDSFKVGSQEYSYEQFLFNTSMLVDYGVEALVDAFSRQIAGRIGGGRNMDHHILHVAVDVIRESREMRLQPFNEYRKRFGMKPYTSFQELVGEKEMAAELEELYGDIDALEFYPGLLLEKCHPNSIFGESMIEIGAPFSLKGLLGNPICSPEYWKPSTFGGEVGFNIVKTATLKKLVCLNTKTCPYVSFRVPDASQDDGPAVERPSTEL

| SMILES | inhibition at 30 µg/mL [1] | inhibition at 30 µg/mL [2] | IC50 (5-Lipoxygenase) |
| --- | --- | --- | --- |
| CCCCCCCC/C=C\CCCCCCCCCCC1=CC(=O)OC1O (stereo not drawn) [Example 10, (Z)-4-(11-eicosenyl)-5-hydroxy-2(5H)-furanone] | 25% | 26% |  |
| O=C1C=C(CCCCCOc2ccc3ccccc3c2)C(O)O1 (stereo not drawn) [Example 16, 5-Hydroxy-4-[5-(2-naphthalenyloxy)pentyl]-2(5H)-furanone] | 27% |  | 9.6 µM |
| O=C1C=C(CCCCOc2ccccc2Cc2ccccc2)C(O)O1 (stereo not drawn) [Example 17, 5-Hydroxy-4-[4-(2-benzylphenoxy)butyl]-2(5H)-furanone] | 12% |  | 8.87 µM |

Next, values leading:

| inhibition at 30 µg/mL [1] | inhibition at 30 µg/mL [2] | IC50 (5-Lipoxygenase) | SMILES |
| --- | --- | --- | --- |
| 23% | 0% |  | C=CCCCCCCCC1=CC(=O)OC1O (stereo not drawn) [Example 7, 5-Hydroxy-4-(8-nonenyl)-2(5H)-furanone] |
| 21% | 36% |  | CCCCCC/C=C\CCCCCCCCC1=CC(=O)OC1O (stereo not drawn) [Example 8, (Z)-4-(9-hexadecenyl)-5-hydroxy-2(5H)-furanone] |
|  | 0% | 93 µM | CCCC/C=C\CCCCCCCCCCC1=CC(=O)OC1O (stereo not drawn) [Example 21, (Z)-4-(11-hexadecenyl)-5-hydroxy-2(5H)-furanone] |
